Measured values published in patent US20240109903A1, “SUBSTITUTED HETEROCYCLES FOR TREATING CANCER” (Northwestern University, priority 2022, published 2024).

What was measured:
SF-539 = experiment: NCI 60 five-dose screen SF-539; assay type: cell-based; conditions: Homo sapiens
SF-268 = experiment: NCI 60 five-dose screen SF-268; assay type: cell-based; conditions: Homo sapiens
A549/ATCC = experiment: NCI 60 five-dose screen A549/ATCC; assay type: cell-based; conditions: Homo sapiens
MDA-MB-231/ATCC = experiment: NCI 60 five-dose screen MDA-MB-231/ATCC; assay type: cell-based; conditions: Homo sapiens
RXF 393 = experiment: NCI 60 five-dose screen RXF 393; assay type: cell-based; conditions: Homo sapiens
MOLT-4 = experiment: NCI 60 five-dose screen MOLT-4; assay type: cell-based; conditions: Homo sapiens
SN12C = experiment: NCI 60 five-dose screen SN12C; assay type: cell-based; conditions: Homo sapiens
MALME-3M = experiment: NCI 60 five-dose screen MALME-3M; assay type: cell-based; conditions: Homo sapiens, Malme-3M
NCI-H322M = experiment: NCI 60 five-dose screen NCI-H322M; assay type: cell-based; conditions: Homo sapiens
SF-295 = experiment: NCI 60 five-dose screen SF-295; assay type: cell-based; conditions: Homo sapiens
786-0 = experiment: NCI 60 five-dose screen 786-0; assay type: cell-based; conditions: Homo sapiens
HCC-2998 = experiment: NCI 60 five-dose screen HCC-2998; assay type: cell-based; conditions: Homo sapiens
IGROV1 = experiment: NCI 60 five-dose screen IGROV1; assay type: cell-based; conditions: Homo sapiens
HOP-92 = experiment: NCI 60 five-dose screen HOP-92; assay type: cell-based; conditions: Homo sapiens
HL-60(TB) = experiment: NCI 60 five-dose screen HL-60(TB); assay type: cell-based; conditions: Homo sapiens
OVCAR-8 = experiment: NCI 60 five-dose screen OVCAR-8; assay type: cell-based; conditions: Homo sapiens
K-562 = experiment: NCI 60 five-dose screen K-562; assay type: cell-based; conditions: Homo sapiens
MCF7 = experiment: NCI 60 five-dose screen MCF7; assay type: cell-based; conditions: Homo sapiens
HT29 = experiment: NCI 60 five-dose screen HT29; assay type: cell-based; conditions: Homo sapiens
TK-10 = experiment: NCI 60 five-dose screen TK-10; assay type: cell-based; conditions: Homo sapiens
SK-MEL-2 = experiment: NCI 60 five-dose screen SK-MEL-2; assay type: cell-based; conditions: Homo sapiens
SNB-19 = experiment: NCI 60 five-dose screen SNB-19; assay type: cell-based; conditions: Homo sapiens
HCT-15 = experiment: NCI 60 five-dose screen HCT-15; assay type: cell-based; conditions: Homo sapiens
KM12 = experiment: NCI 60 five-dose screen KM12; assay type: cell-based; conditions: Homo sapiens
LOX IMVI = experiment: NCI 60 five-dose screen LOX IMVI; assay type: cell-based; conditions: Homo sapiens
SR = experiment: NCI 60 five-dose screen SR; assay type: cell-based, human
CAKI-1 = experiment: NCI 60 five-dose screen CAKI-1; assay type: cell-based; conditions: Homo sapiens
COLO 205 = experiment: NCI 60 five-dose screen COLO 205; assay type: cell-based; conditions: Homo sapiens
[1] = read-out: LC50 (the source's name) (converted)

`Fc1ccc(N2CC(Cn3c(C(F)(F)F)cc4c(Cl)ncnc43)C2)c(F)c1` [NUCC-0226695] showed a GI50 (SF-539) of 13.8 µM, an IC50 (SF-539) of 24.5 µM and an IC (TGI) (SF-539) of 28.2 µM. The CC50 (SF-539; [1]) was 58.9 µM, the GI50 (SF-268) was 3.16 µM and the IC50 (SF-268) was 5.62 µM. The IC (TGI) (SF-268) was 11.2 µM, the CC50 (SF-268; [1]) was 47.9 µM and the GI50 (A549/ATCC) was 17.4 µM. It also gave an IC50 (A549/ATCC) of 29.5 µM, an IC (TGI) (A549/ATCC) of 35.5 µM and a CC50 (A549/ATCC; [1]) of 74.1 µM. It also gave a GI50 (MDA-MB-231/ATCC) of 1.62 µM, an IC50 (MDA-MB-231/ATCC) of 2.95 µM and an IC (TGI) (MDA-MB-231/ATCC) of 3.09 µM. It also gave a CC50 (MDA-MB-231/ATCC; [1]) of 5.89 µM, a GI50 (RXF 393) of 2.09 µM and an IC50 (RXF 393) of 5.37 µM. For the same molecule, the IC (TGI) (RXF 393) was 5.01 µM, the CC50 (RXF 393; [1]) was 15.5 µM and the GI50 (MOLT-4) was 3.09 µM. The IC50 (MOLT-4) was 4.57 µM, the IC (TGI) (MOLT-4) was 8.91 µM and the CC50 (MOLT-4; read-out: LC50 (the source's name)) was at least 100 µM. It also gave a GI50 (SN12C) of 1.95 µM, an IC50 (SN12C) of 3.31 µM and an IC (TGI) (SN12C) of 5.01 µM. The CC50 (SN12C; [1]) was 16.2 µM, the GI50 (MALME-3M) was 12.6 µM and the IC50 (MALME-3M) was 25.7 µM. For the same molecule, the IC (TGI) (MALME-3M) was 25.1 µM, the CC50 (MALME-3M; [1]) was 50.1 µM and the GI50 (NCI-H322M) was 10.7 µM. It also gave an IC50 (NCI-H322M) of 20.4 µM, an IC (TGI) (NCI-H322M) of 22.9 µM and a CC50 (NCI-H322M; [1]) of 47.9 µM. It also gave a GI50 (SF-295) of 11.5 µM, an IC50 (SF-295) of 20 µM and an IC (TGI) (SF-295) of 24.5 µM. The CC50 (SF-295; [1]) was 52.5 µM, the GI50 (786-0) was 14.8 µM and the IC50 (786-0) was 26.3 µM. The IC (TGI) (786-0) was 28.8 µM, the CC50 (786-0; [1]) was 57.5 µM and the GI50 (HCC-2998) was 1.95 µM. For the same molecule, the IC50 (HCC-2998) was 3.47 µM, the IC (TGI) (HCC-2998) was 3.47 µM and the CC50 (HCC-2998; [1]) was 6.17 µM. The GI50 (IGROV1; IGROV-1) was 1.86 µM, the IC50 (IGROV1; IGROV-1) was 3.24 µM and the IC (TGI) (IGROV1; IGROV-1) was 3.55 µM. It also gave a CC50 (IGROV1; IGROV-1, read-out: LC50 (the source's name) (converted)) of 6.76 µM, a GI50 (HOP-92) of 11 µM and an IC50 (HOP-92) of 26.9 µM. It also gave an IC (TGI) (HOP-92) of 25.7 µM, a CC50 (HOP-92; [1]) of 58.9 µM and a GI50 (HL-60(TB)) of 2.24 µM. The IC50 (HL-60(TB)) was 3.89 µM, the IC (TGI) (HL-60(TB)) was 6.31 µM and the CC50 (HL-60(TB); [1]) was at least 100 µM. It also gave a GI50 (OVCAR-8) of 2.14 µM, an IC50 (OVCAR-8) of 3.47 µM and an IC (TGI) (OVCAR-8) of 5.01 µM. For the same molecule, the CC50 (OVCAR-8; [1]) was 19.1 µM, the GI50 (K-562; K562) was 2.34 µM and the IC50 (K-562; K562) was 3.09 µM. The IC (TGI) (K-562; K562) was 7.08 µM, the CC50 (K-562; K562, read-out: LC50 (the source's name)) was at least 100 µM and the GI50 (MCF7) was 8.13 µM. It also gave an IC50 (MCF7) of 12.9 µM, an IC (TGI) (MCF7) of 23.4 µM and a CC50 (MCF7; [1]) of 60.3 µM. For the same molecule, the GI50 (HT29; HT-29) was 3.47 µM, the IC50 (HT29; HT-29) was 4.27 µM and the IC (TGI) (HT29; HT-29) was 16.2 µM. For the same molecule, the CC50 (HT29; HT-29, read-out: LC50 (the source's name) (converted)) was 97.7 µM, the GI50 (TK-10) was 19.1 µM and the IC50 (TK-10) was 42.7 µM. It also gave an IC (TGI) (TK-10) of 51.3 µM, a CC50 (TK-10; [1]) of at least 100 µM and a GI50 (SK-MEL-2) of 15.8 µM. For the same molecule, the IC50 (SK-MEL-2) was 31.6 µM, the IC (TGI) (SK-MEL-2) was 30.9 µM and the CC50 (SK-MEL-2; [1]) was 61.7 µM. It also gave a GI50 (SNB-19) of 15.1 µM, an IC50 (SNB-19) of 27.5 µM and an IC (TGI) (SNB-19) of 28.8 µM. It also gave a CC50 (SNB-19; [1]) of 55 µM, a GI50 (HCT-15) of 1.78 µM and an IC50 (HCT-15) of 3.09 µM. It also gave an IC (TGI) (HCT-15) of 3.55 µM, a CC50 (HCT-15; [1]) of 7.08 µM and a GI50 (KM12) of 16.2 µM. It also gave an IC50 (KM12) of 28.2 µM, an IC (TGI) (KM12) of 30.9 µM and a CC50 (KM12; [1]) of 60.3 µM. It also gave a GI50 (LOX IMVI) of 1.62 µM, an IC50 (LOX IMVI) of 2.82 µM and an IC (TGI) (LOX IMVI) of 3.02 µM. The CC50 (LOX IMVI; [1]) was 5.5 µM, the TGI (SR) was 5.16 −log[M] and the GI50 (SR; Homo sapiens) was 2.14 µM. The IC50 (SR; Homo sapiens) was 3.39 µM, the CC50 (SR; Homo sapiens, read-out: LC50 (the source's name)) was at least 100 µM and the GI50 (CAKI-1) was 11.7 µM. For the same molecule, the IC50 (CAKI-1) was 20.4 µM, the IC (TGI) (CAKI-1) was 24 µM and the CC50 (CAKI-1; [1]) was 50.1 µM. It also gave a GI50 (COLO 205) of 15.1 µM, an IC50 (COLO 205) of 26.9 µM and an IC (TGI) (COLO 205) of 32.4 µM. The CC50 (COLO 205; [1]) was 70.8 µM.
